Measurements taken from patent US6867192B1, “Compounds useful in the treatment of inflammatory diseases” (priority 1998, dated 2005).

Biological target: T1, integrin VLA-4, expressed on the Jurkat J6 (human lymphoblast cell line) cell membrane with VCAM-1 (Homo sapiens, UniProt P05556+P13612)
T1 construct: integrin VLA-4, expressed on the Jurkat J6 (human lymphoblast cell line) cell membrane; endogenous in cells; host or cells: Jurkat J6 cells (integrin). zzVCAM-1 was made in house in Drosophila melanogaster S2 cells
Assay: Jurkat J6/VCAM-1 adhesion assay
Format: cell-based
Details: Jurkat J6 cell adhesion to VCAM-1, 1 mM MnCl2; mean of n experiments
How it was run: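 Jurkat J6 cells loaded with BCECF-AM were added with compound in HBSS with 1 mM MnCl2 to plates coated with IgG-captured zzVCAM-1 (seven-domain, S2-expressed) and left to adhere for 30 min at 37 °C. After washing, fluorescence was read. pIC50 came from a four-parameter fit between no compound and 2 mM EDTA.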

T1 sequence (P13612 34-1032): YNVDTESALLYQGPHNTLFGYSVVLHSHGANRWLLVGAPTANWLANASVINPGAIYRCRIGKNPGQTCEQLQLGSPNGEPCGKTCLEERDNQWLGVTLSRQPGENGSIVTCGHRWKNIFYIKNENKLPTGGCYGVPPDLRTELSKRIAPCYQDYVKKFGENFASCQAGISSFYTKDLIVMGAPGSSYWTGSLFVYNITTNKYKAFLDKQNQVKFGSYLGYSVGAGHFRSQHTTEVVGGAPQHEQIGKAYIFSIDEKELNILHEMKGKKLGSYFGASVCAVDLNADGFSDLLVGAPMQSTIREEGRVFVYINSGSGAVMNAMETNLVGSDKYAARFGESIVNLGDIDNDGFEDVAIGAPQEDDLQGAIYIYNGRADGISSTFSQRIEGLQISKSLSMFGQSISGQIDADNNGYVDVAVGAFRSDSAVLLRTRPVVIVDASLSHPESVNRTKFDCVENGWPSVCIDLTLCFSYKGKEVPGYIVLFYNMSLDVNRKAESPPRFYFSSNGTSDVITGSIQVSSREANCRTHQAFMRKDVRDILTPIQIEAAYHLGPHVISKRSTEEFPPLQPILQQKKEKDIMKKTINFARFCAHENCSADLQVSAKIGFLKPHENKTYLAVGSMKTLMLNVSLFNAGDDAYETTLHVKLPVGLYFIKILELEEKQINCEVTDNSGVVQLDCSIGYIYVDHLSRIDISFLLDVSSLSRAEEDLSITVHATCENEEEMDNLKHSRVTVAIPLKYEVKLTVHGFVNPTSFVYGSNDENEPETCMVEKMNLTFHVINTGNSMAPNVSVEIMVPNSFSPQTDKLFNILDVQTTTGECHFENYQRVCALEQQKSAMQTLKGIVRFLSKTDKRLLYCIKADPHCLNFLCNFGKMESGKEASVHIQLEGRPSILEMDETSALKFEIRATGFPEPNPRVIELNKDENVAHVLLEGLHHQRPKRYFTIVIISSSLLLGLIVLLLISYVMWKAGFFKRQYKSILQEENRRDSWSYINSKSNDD
T1 sequence (P05556 21-798): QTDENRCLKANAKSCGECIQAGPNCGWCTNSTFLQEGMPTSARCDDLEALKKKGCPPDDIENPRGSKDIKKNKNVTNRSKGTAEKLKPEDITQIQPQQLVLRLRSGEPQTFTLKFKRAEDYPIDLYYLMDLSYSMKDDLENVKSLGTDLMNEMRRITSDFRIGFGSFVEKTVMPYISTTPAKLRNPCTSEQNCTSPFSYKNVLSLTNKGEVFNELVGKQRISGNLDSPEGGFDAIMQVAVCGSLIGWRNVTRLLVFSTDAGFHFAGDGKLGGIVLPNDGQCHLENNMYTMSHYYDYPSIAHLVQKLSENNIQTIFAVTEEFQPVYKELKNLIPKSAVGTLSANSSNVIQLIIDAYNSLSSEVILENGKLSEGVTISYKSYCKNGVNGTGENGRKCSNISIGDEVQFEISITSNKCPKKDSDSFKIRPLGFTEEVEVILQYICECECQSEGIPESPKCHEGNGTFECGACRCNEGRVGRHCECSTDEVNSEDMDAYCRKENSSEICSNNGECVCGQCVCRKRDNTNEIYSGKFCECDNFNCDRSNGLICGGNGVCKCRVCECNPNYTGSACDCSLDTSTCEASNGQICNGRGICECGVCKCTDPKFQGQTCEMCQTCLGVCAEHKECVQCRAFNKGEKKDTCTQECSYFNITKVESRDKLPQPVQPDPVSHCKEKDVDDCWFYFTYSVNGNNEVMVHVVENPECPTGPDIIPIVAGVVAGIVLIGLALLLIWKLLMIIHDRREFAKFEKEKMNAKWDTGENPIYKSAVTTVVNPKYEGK

IC50 [nM] | SMILES
43.7 | CC(C)C[C@H](NC(=O)COc1ccccc1C(=O)c1ccccc1)C(=O)N[C@@H](Cc1ccc(OC(=O)N2CCC(NC(=O)Cc3ccc(Cl)cc3)CC2)cc1)C(=O)O [Example 46, (2S)-2-[((2S)-2-{[2-(2-Benzoylphenoxy)acetyl]amino}-4-methylpentanoyl)amino]-3-(4-{[(4-{[2-(4-chlorophenyl)acetyl]amino}-1-piperidinyl)carbonyl]oxy}phenyl)propanoic acid]
33.1 | CC(C)C[C@H](NC(=O)COc1ccccc1I)C(=O)N[C@@H](Cc1ccc(OC(=O)N2CCC(NC(=O)Cc3ccc(Cl)cc3)CC2)cc1)C(=O)O [Example 47, (2S)-3-(4-{[(4-{[2-(4-Chlorophenyl)acetyl]amino}-1-piperidinyl)carbonyl]oxy}phenyl)-2-[((2S)-2-{[2-(2-iodophenoxy)acetyl]amino}-4-methylpentanoyl)amino]propanoic acid]
41.7 | CC(C)C[C@H](NC(=O)COc1ccccc1C(C)(C)C)C(=O)N[C@@H](Cc1ccc(OC(=O)N2CCC(NC(=O)Cc3ccc(Cl)cc3)CC2)cc1)C(=O)O [Example 48, (2S)-2-{[(2S)-2-({2-[2-(Tert-butyl)phenoxy]acetyl}amino)-4-methylpentanoyl]amino}-3-(4-{[(4-{[2-(4-chlorophenyl)acetyl]amino}-1-piperidinyl)carbonyl]oxy}phenyl)propanoic acid]
44.7 | CC(C)C[C@H](NC(=O)c1cccc2c1oc1ccccc12)C(=O)N[C@@H](Cc1ccc(OC(=O)N2CCC(NC(=O)Cc3ccc(Cl)cc3)CC2)cc1)C(=O)O [Example 49, (2S)-3-(4-{[(4-{[2-(4-Chlorophenyl)acetyl]amino}-1-piperidinyl)carbonyl]oxy}phenyl)-2-({(2S)-2-[(dibenzo[b,d]furan-4-ylcarbonyl)amino]-4-methylpentanoyl}amino)propanoic acid]
25.1 | CC(C)C[C@H](NC(=O)COc1cc2ccccc2cc1C(=O)N1CCCCC1)C(=O)N[C@@H](Cc1ccc(OC(=O)N2CCC(NC(=O)Cc3ccc(Cl)cc3)CC2)cc1)C(=O)O [Example 50, (2S)-3-(4-{[(4-{[2-(4-Chlorophenyl)acetyl]amino}-1-piperidinyl)carbonyl]oxy}phenyl)-2-({(2S)-4-methyl-2-[(2-{[3-(1-piperidinylcarbonyl)-2-naphthyl]oxy}acetyl)amino]pentanoyl}amino)propanoic acid]
13.8 | CC(C)C[C@H](NC(=O)COc1ccccc1C(C)(C)C)C(=O)N[C@@H](Cc1ccc(OC(=O)N2CCC(NC(=O)Cc3ccccc3)CC2)cc1)C(=O)O [Example 51, (2S)-2-{[(2S)-2-({2-[2-(Tert-butyl)phenoxy]acetyl}amino)-4-methylpentanoyl]amino}-3-{4-[({4-[(2-phenylacetyl)amino]-1-piperidinyl}carbonyl)oxy]phenyl}propanoic acid]
33.1 | CC(C)C[C@H](NC(=O)COc1ccccc1C(C)(C)C)C(=O)N[C@@H](Cc1ccc(OC(=O)N2CCC(NC(=O)CC3CCCCC3)CC2)cc1)C(=O)O [Example 52, (2S)-2-{[(2S)-2-({2-[2-(Tert-butyl)phenoxy]acetyl}amino)-4-methylpentanoyl]amino}-3-{4-[({4-[(2-cyclohexylacetyl)amino]-1-piperidinyl}carbonyl)oxy]phenyl}propanoic acid]
155 | CC(C)C[C@H](NC(=O)COc1ccccc1C(C)(C)C)C(=O)N[C@@H](Cc1ccc(OC(=O)N2CCC(NC(=O)C(C3CCCCC3)C3CCCCC3)CC2)cc1)C(=O)O [Example 53, (2S)-2-{[(2S)-2-({2-[2-(Tert-butyl)phenoxy]acetyl}amino)-4-methylpentanoyl]amino}-3-{4-[({4-[(2,2-dicyclohexylacetyl)amino]-1-piperidinyl}carbonyl)oxy]phenyl}propanoic acid]
5.62 | Cc1ccccc1OCC(=O)N[C@@H](CC(C)C)C(=O)N[C@@H](Cc1ccc(OC(=O)N2CCC(NC(=O)Cc3ccccc3)CC2)cc1)C(=O)O [Example 54, (2S)-2-[((2S)-4-Methyl-2-{[2-(2-methylphenoxy)acetyl]amino}pentanoyl)amino]-3-{4-[({4-[(2-phenylacetyl)amino]-1-piperidinyl}carbonyl)oxy]phenyl}propanoic acid]
61.7 | CC(C)C[C@H](NC(=O)COc1ccccc1C1CCCCC1)C(=O)N[C@@H](Cc1ccc(OC(=O)N2CCC(NC(=O)Cc3ccccc3)CC2)cc1)C(=O)O [Example 55, (2S)-2-[((2S)-2-{[2-(2-Cyclohexylphenoxy)acetyl]amino}-4-methylpentanoyl)amino]-3-{4-[({4-[(2-phenylacetyl)amino]-1-piperidinyl}carbonyl)oxy]phenyl}propanoic acid]
87.1 | CC(C)C[C@H](NC(=O)COc1ccccc1C1CCCCC1)C(=O)N[C@@H](Cc1ccc(OC(=O)N2CCC(NC(=O)CC3CCCCC3)CC2)cc1)C(=O)O [Example 56, (2S)-3-{4-[({4-[(2-Cyclohexylacetyl)amino]-1-piperidinyl}carbonyl)oxy]phenyl}-2-[((2S)-2-{[2-(2-cyclohexylphenoxy)acetyl]amino}-4-methylpentanoyl)amino]propanoic acid]

Tested on: ovalbumin sensitised guinea pigs
Assay: Inhibition of eosinophil infiltration and hyper-reactivity in the guinea pig
Format: in vivo
Details: Cavia porcellus, Eosinophil, inhaled or nasal, 24 h, dose 200 μg/kg body weight i.t., positive control, airway hyper-reactivity to U46619
Experimental: (3) Inhibition of Eosinophil Infiltration and Hyper-Reactivity in the Guinea Pig
In a method based on that described by Danahay et al., 1997, ovalbumin sensitised guinea pigs were dosed with mepyramine (30 mg kg^−1 ip) to protect against anaphylactic bronchospasm. Test compounds, dissolved in 0.9% saline, were given by the inhaled route (30 minutes breathing of an aerosol of the compound) or the intra-tracheal route, 30 minutes before and 6 hours after ovalbumin challenge (10 minutes breathing of an aerosol generated from a 0.5% solution of ovalbumin). Hyper-reactivity of the airways to the thromboxane mimetic U46619, was measured 24 hours after ovalbumin challenge in un-restrained animals using a whole body plethysmograph (Buxco Ltd., USA). The guinea pigs were then sacrificed and the lungs lavaged. Total and differential leukocyte counts were then obtained for the bronchoalveolar lavage fluid and the percentage reduction in eosinophil accumulation determined (Sanjar et al., 1992). Dexamethasone (200 μg kg^−1 i.t) was used as a positive control. Data was presented as the inhibitory effect of the specified dose expressed as a percentage of the vehicle control response.

SMILES | inhibition in vivo at 0.2 mg/kg [%]
C[C@@H]1C[C@H]2[C@@H]3CCC4=CC(=O)C=C[C@]4(C)[C@@]3(F)[C@@H](O)C[C@]2(C)[C@@]1(O)C(=O)CO [Dexamethasone, reference compound] | 80

Same assay, conditions: dose 200 μg/kg body weight i.t., positive control

SMILES | % Inhibition Eosinophil Accumulation [%]
C[C@@H]1C[C@H]2[C@@H]3CCC4=CC(=O)C=C[C@]4(C)[C@@]3(F)[C@@H](O)C[C@]2(C)[C@@]1(O)C(=O)CO [Dexamethasone, reference compound] | 55

Tested on: not listed separately
Assay: Solubility in water
Format: physicochemical
Details: not given

solubility [mg/mL] | SMILES
> 250 | Cc1ccccc1OCC(=O)N[C@@H](CC(C)C)C(=O)N[C@@H](Cc1ccc(OC(=O)N2CCC(C(N)=O)CC2)cc1)C(=O)[O-].[K+] [Example 27A, (2S)-3-[4-({[4-(Aminocarbonyl)-1-piperidinyl]carbonyl}oxy)phenyl]-2-[((2S)-4-methyl-2-{[2-(2-methylphenoxy)acetyl]amino}pentanoyl)amino]propanoic acid potassium salt]
